Measured values from ChEMBL document CHEMBL5150064 (J Med Chem, 2022).
In brackets after ≈: the same amount, converted by molar mass.

What was measured:
[1] = biological target: T1, Phosphatidylinositol 4,5-bisphosphate 3-kinase catalytic subunit delta isoform (Homo sapiens) (UniProt O00329); assay: Inhibition of PI3Kdelta in human B-cells assessed as reduction in CD69 expression preincubated for 1 hr followed by IgM stimulation for 18 hrs by flow cytometry analysis; assay type: cell-based; settings: B-cell
T1 sequence (whole entry): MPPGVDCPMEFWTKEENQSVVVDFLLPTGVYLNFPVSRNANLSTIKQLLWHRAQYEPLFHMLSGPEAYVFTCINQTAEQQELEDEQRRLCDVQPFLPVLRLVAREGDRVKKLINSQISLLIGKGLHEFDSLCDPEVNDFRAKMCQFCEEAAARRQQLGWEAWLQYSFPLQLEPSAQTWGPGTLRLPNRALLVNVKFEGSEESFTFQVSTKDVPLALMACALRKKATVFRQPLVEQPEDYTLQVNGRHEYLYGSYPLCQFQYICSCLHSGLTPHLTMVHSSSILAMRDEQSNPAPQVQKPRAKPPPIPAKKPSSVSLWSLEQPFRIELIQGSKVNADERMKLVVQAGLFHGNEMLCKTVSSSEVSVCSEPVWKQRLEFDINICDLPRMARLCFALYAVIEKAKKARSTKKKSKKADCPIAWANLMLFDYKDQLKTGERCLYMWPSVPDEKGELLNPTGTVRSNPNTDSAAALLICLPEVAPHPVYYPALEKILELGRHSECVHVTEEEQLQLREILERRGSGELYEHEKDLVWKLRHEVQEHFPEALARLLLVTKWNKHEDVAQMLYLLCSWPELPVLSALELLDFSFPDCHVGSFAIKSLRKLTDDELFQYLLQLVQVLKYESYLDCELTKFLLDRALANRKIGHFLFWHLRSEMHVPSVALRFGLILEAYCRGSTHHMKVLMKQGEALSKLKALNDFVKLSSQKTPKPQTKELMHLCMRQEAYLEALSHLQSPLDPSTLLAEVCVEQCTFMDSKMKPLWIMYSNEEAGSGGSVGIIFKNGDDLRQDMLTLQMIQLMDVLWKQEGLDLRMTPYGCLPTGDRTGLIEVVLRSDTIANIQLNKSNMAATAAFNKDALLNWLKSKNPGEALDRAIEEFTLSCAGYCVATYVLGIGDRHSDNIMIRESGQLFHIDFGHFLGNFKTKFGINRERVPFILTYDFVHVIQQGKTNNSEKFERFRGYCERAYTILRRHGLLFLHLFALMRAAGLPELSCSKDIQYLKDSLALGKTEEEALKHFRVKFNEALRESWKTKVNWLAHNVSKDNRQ

[2] = Thermodynamic solubility of the compound in FaSSIF; assay type: physicochemical; settings: read-out: Therm_solubility
[3] = Antiproliferative activity against human KPL-4 cells assessed as reduction in cell viability incubated for 4 days by Celltiter-Glo luminescence assay; assay type: functional, cell-based; settings: KPL4, 96 h

C[C@H](Nc1ccc2c(c1)OCCn1cc(N3C(=O)OC[C@H]3C(F)F)nc1-2)C(N)=O [INAVOLISIB]
IC90 [1]: 276 nM
solubility thermodynamic [2]: 36 µg/mL (≈ 88.4 µM)
EC50 [3]: 10 nM
